Data set [1] relates to HT-29. As to the kind of experiment: Growth inhibition of human HT-29 cells after 72 hrs by MTS-PMS assay. In kind it is functional. The note with it: HT-29, 72 h.
The nature of data set [2]: Growth inhibition of human U87MG cells after 72 hrs by MTS-PMS assay. The conditions noted are these: U-87 MG. In kind it is functional, U-87MG ATCC.
The target in data set [3] is T1, Vitamin D3 receptor (Mus musculus) (UniProt P48281).
T1 sequence (whole entry): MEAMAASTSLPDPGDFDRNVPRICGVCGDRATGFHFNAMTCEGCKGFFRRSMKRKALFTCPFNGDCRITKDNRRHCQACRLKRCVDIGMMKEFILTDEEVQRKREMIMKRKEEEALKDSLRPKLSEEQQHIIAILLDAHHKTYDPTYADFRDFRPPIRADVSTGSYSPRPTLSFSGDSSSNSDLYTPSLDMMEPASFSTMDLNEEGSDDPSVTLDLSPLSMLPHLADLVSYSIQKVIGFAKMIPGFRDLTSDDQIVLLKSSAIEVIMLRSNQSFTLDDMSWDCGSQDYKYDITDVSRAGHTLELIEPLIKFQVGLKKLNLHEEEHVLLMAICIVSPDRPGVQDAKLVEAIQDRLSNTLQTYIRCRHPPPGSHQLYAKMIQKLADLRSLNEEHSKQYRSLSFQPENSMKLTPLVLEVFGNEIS
The data set can be described thus: Activation of VDR in mouse C3H10T1/2 cells assessed as upregulation of CYP24A1 mRNA expression at 1 to 10 uM after 24 hrs by RT-PCR analysis. The data set is classed as cell-based. The note with it: C3H 10T1/2.

Data set [4] can be described thus: […] of hedgehog signaling in mouse C3H10T1/2 cells assessed as effect on GLI1 mRNA expression at 1 to 10 uM after 24 hrs by RT-PCR analysis in presence of oxysterol. The data set is classed as cell-based. The conditions noted are these: C3H 10T1/2.
Data set [5] deals with HT-29. The data set can be described thus: Ratio of GI50 for human U87MG cells to GI50 for human HT-29 cells. The data set is classed as functional.
Data set [6] concerns the target T1, Vitamin D3 receptor (Mus musculus). The data set can be described thus: Activation of VDR in mouse C3H10T1/2 cells assessed as upregulation of CYP24A1 mRNA expression at 5 uM after 24 hrs by RT-PCR analysis relative to DMSO-treated control. The data set is classed as cell-based. The note with it: C3H 10T1/2.
Data set [7] is described as follows: […] of hedgehog signaling in mouse C3H10T1/2 cells assessed as downregulation of GLI1 mRNA expression at 5 uM after 24 hrs by RT-PCR analysis in presence of oxysterol. In kind it is cell-based. The conditions noted are these: C3H 10T1/2.
Data set [8] can be described thus: Cytotoxicity against mouse C3H10T1/2 cells at 10 uM after 24 hrs. In kind it is cell-based. The note with it: c3h 10t1/2, 24 h.

Molecules are shown by their SMILES. Activity calls are given as the source filed them. No cut-off for these calls is given here.

The term GI50 denotes the concentration that inhibits growth by half. Read a high GI50 as less potent growth inhibition.

As to `COc1cccc(C(=O)OC[C@@H](C)[C@H]2CC[C@H]3[C@@H](O)CCC[C@]23C)c1`, the GI50 in the data set with HT-29 [1] turned out to be 23.7 µM; in data set [2], 15.9 µM.

On to `C[C@H](COC(=O)c1cccnc1)[C@H]1CC[C@H]2[C@@H](O)CCC[C@]12C`, for which the GI50 in the data set with HT-29 [1] was 95.2 µM; in data set [2] it was greater than 100 µM.

With `C[C@H](COC(=O)c1ccc(O)cc1)[C@H]1CC[C@H]2[C@@H](O)CCC[C@]12C`, the figures for the GI50 (in the data set with HT-29 [1]; in data set [2]) were 41 µM and 67 µM, respectively.

`C[C@H](COC(=O)C(C)(C)C)[C@H]1CC[C@H]2[C@@H](O)CCC[C@]12C`: the result in data set [3] and in data set [4] was inactive. For the same molecule, the GI50 was found to be 11.9 µM in the data set on HT-29 [1] and 17.1 µM in data set [2].

Turning to `C[C@H](COC(=O)c1ccc(Cl)cc1)[C@H]1CC[C@H]2[C@@H](O)CCC[C@]12C`, the RatioGI50 in the data set on HT-29 [5] is given as 2. The GI50 in the data set with HT-29 [1] was found to be 15.9 µM; in data set [2], 31.4 µM.

On to `C[C@H](COC(=O)C1CCCCC1)[C@H]1CC[C@H]2[C@@H](O)CCC[C@]12C`, for which the outcome in data set [3] and in data set [4] was inactive. For the same molecule, the GI50 amounted to 15.2 µM in the data set on HT-29 [1] and 11.2 µM in data set [2].

For `C[C@H](COC(=O)c1cccc2ccccc12)[C@H]1CC[C@H]2[C@@H](O)CCC[C@]12C`, the values for the GI50 (in the data set with HT-29 [1]; in data set [2]) were 35.3 µM and 39.2 µM, respectively.

Take `C[C@H](COC(=O)c1ccc2ccccc2c1)[C@H]1CC[C@H]2[C@@H](O)CCC[C@]12C`: the values for the GI50 (in the data set with HT-29 [1]; in data set [2]) were 19.8 µM and 51.3 µM, respectively.

For `C[C@H](COC(=O)c1ccccn1)[C@H]1CC[C@H]2[C@@H](O)CCC[C@]12C`, the GI50 (in the data set on HT-29 [1]; in data set [2]) was greater than 100 µM in each case.

Turning to `C[C@H](COC(=O)c1ccccc1Cl)[C@H]1CC[C@H]2[C@@H](O)CCC[C@]12C`, the GI50 in the data set with HT-29 [1] stood at 14.4 µM; in data set [2], 46.8 µM.

As for `C[C@H](COC(=O)C1CCCC1)[C@H]1CC[C@H]2[C@@H](O)CCC[C@]12C`, the GI50 in the data set with HT-29 [1] stood at 22.1 µM; in data set [2], 21.7 µM.

As to `COc1ccccc1C(=O)OC[C@@H](C)[C@H]1CC[C@H]2[C@@H](O)CCC[C@]12C`, the GI50 in the data set on HT-29 [1] was 35.7 µM; in data set [2] it was 56 µM.

Take `C=C1CC[C@H](O)C/C1=C/C=C1\CCC[C@]2(C)[C@@H]([C@H](C)CCCC(C)C)CC[C@@H]12` [CHOLECALCIFEROL]: the fold change (FC) in data set [6] turned out to be 8000. Also, the outcome in data set [7] was Active. The molecule further displayed a GI50 in the data set on HT-29 [1] of 53.8 µM.

In the case of `CC(C)CC(=O)OC[C@@H](C)[C@H]1CC[C@H]2[C@@H](O)CCC[C@]12C`, the GI50 in the data set with HT-29 [1] was 47.5 µM; in data set [2], 56 µM.

As for `C[C@H](COC(=O)c1ccco1)[C@H]1CC[C@H]2[C@@H](O)CCC[C@]12C`, the GI50 is greater than 100 µM in the data set on HT-29 [1] and 79.1 µM in data set [2].

For `C[C@H](CNC(=O)c1ccc(Cl)cc1)[C@H]1CC[C@H]2[C@@H](O)CCC[C@]12C`, the GI50 came to 32.3 µM in the data set with HT-29 [1] and 42.9 µM in data set [2].

In the case of `C[C@H](COC(=O)c1ccncc1)[C@H]1CC[C@H]2[C@@H](O)CCC[C@]12C`, the GI50 (with HT-29 [1]; in data set [2]) was greater than 100 µM in each case.

Regarding `C[C@H](COC(=O)C1CCC1)[C@H]1CC[C@H]2[C@@H](O)CCC[C@]12C`, the GI50 with HT-29 [1] is 27 µM; in data set [2], 27.1 µM.

`C[C@H](COC(=O)c1cccc(Cl)c1)[C@H]1CC[C@H]2[C@@H](O)CCC[C@]12C`: the GI50 with HT-29 [1] was found to be 26.2 µM; in data set [2] it was 69 µM.

On to `C[C@H](COC(=O)c1ccccc1)[C@H]1CC[C@H]2[C@@H](O)CCC[C@]12C`, for which, in data set [3], the outcome was inactive. Also, the GI50 was found to be 22.6 µM in the data set with HT-29 [1] and 24.6 µM in data set [2].

As for `C[C@H](COC(=O)c1ccccc1)[C@H]1CC[C@H]2[C@@H](OC(=O)c3ccccc3)CCC[C@]12C`, the GI50 (with HT-29 [1]; in data set [2]) was greater than 100 µM in each case.

Turning to `C[C@H](CNC(=O)C1CCCCC1)[C@H]1CC[C@H]2[C@@H](O)CCC[C@]12C`, the GI50 with HT-29 [1] is 84.1 µM; in data set [2], greater than 100 µM.

Turning to `C[C@H](COC(=O)c1cccc(O)c1)[C@H]1CC[C@H]2[C@@H](O)CCC[C@]12C`, the GI50 with HT-29 [1] is 70.3 µM; in data set [2], 76.9 µM.

With `C[C@H](COC(=O)C1CC1)[C@H]1CC[C@H]2[C@@H](O)CCC[C@]12C`, the GI50 in the data set with HT-29 [1] was 82.6 µM; in data set [2], greater than 100 µM.

For `C[C@H](COC(=O)c1ccccc1O)[C@H]1CC[C@H]2[C@@H](O)CCC[C@]12C`, the Activity result in data set [8] is “Toxic”. Further, the outcome in data set [3] and in data set [4] was inactive. For the same molecule, the GI50 in the data set on HT-29 [1] stood at 14.1 µM; in data set [2], 18.8 µM.

Turning to `COc1ccc(C(=O)OC[C@@H](C)[C@H]2CC[C@H]3[C@@H](O)CCC[C@]23C)cc1`, the 50% growth inhibitory concentration (GI50) with HT-29 [1] turned out to be 39.8 µM; in data set [2] it was 33.1 µM.

With `C[C@H](CNC(=O)c1ccccc1O)[C@H]1CC[C@H]2[C@@H](O)CCC[C@]12C`, the results for the GI50 (in the data set on HT-29 [1]; in data set [2]) were 68.2 µM and greater than 100 µM, respectively.

For the molecule `C[C@H](CN)[C@H]1CC[C@H]2[C@@H](O)CCC[C@]12C`, the GI50 (with HT-29 [1]; in data set [2]) was greater than 100 µM each time.

(Values after ChEMBL document CHEMBL2424656, “Analogues of the Inhoffen-Lythgoe diol with anti-proliferative activity” (Bioorg Med Chem Lett, 2013).)
